Source: ChEMBL document CHEMBL5365463, “Identification of a Self-Assembling Small-Molecule Cancer Vaccine Adjuvant with an Improved Toxicity Profile” (J Med Chem, 2023)
Activity calls are given as the source filed them. The rule behind the calls is not given here.

How the values were obtained:
RAW264.7 [1] = experiment: Upregulation of CD40 expression in mouse RAW264.7 cells measured after 24 hrs by flow cytometry analysis; format: functional, cell-based; conditions: dose 10-50 µM
RAW264.7 [2] = experiment: Induction of apoptosis in mouse RAW264.7 cells assessed as necrotic cells at 16 uM by flow cytometry analysis (reference value: 20.6 %); format: functional
BMDC [3] = experiment: Induction of immune response in TLR7 knockout mouse BMDC cells assessed as increase in TNF-alpha production at 10 to 100 uM incubated for 24 hrs by ELISA method; format: functional, cell-based; conditions: dose 10-100 µM
B16-OVA melanoma cell [4] = experiment: Antitumor activity against mouse B16-OVA melanoma cell xenografted in C57BL/6 mouse assessed as increase in number of memory T cells in spleen at 500 ug, sc in presence of OVAp by flow cytometry analysis; format: functional, organism-based; conditions: dose 500.0 µg
RAW264.7 [5] = experiment: Induction of apoptosis in mouse RAW264.7 cells assessed as necrotic cells at 8 uM by flow cytometry analysis (reference value: 20.6 %); format: functional
BMDC [6] = experiment: Induction of immune response in TLR7 knockout mouse BMDC cells assessed as increase in IL-6 production at 10 to 100 uM incubated for 24 hrs by ELISA method; format: functional, cell-based; conditions: dose 10-100 µM
Mus musculus [7] = species: Mus musculus; experiment: Induction of immune response in OVAp immunized C57BL/6 mouse assessed as fold increase in IFN-gamma+ cytotoxic T lymphocytes at 100 ug measured after 35 days by flow cytometry analysis; format: functional, T-cell; conditions: dose 100 µg; time 35 day
[8] = Toxicity in C57BL/6 mouse assessed as effect on ALT level in serum at 500 ug measured after 1 day after immunization; conditions: 24 h, dose 500 µg
[9] = Antitumor activity against mouse B16-OVA melanoma cell xenografted in C57BL/6 mouse assessed as fold increase in CD8+T cells at 500 ug, sc in presence of OVAp by flow cytometry analysis; format: functional; conditions: dose 500 µg
RAW264.7 [10] = experiment: Induction of apoptosis in mouse RAW264.7 cells assessed as apoptotic cells at 8 uM by flow cytometry analysis (reference value: 3.26 %); format: functional
Mus musculus [11] = experiment: Immuno-adjuvant activity in SV-immunized C57BL/6 mouse assessed as increase in HA-specific IgG1 titer level at 100 ug, sc administered immediately and on day 0, 14 and measured at day 21 by ELISA; format: functional, organism-based; conditions: dose 100.0 µg, time 21.0 day
BMDC [12] = experiment: Induction of immune response in TLR7 knockout mouse BMDC cells assessed as increase in IFN-beta production at 10 to 100 uM incubated for 24 hrs by ELISA method; format: functional, cell-based; conditions: dose 10-100 µM
RAW264.7 [13] = experiment: Induction of apoptosis in mouse RAW264.7 cells assessed as live cells at 10 uM by flow cytometry analysis (reference value: 75.4 %); format: functional
[14] = Toxicity in BALB/c mouse assessed as reduction in leukocyte count measured after 16 hrs; conditions: dose 100-1000 µg
BMDC [15] = experiment: Upregulation of CD86 expression in mouse BMDC cells at 5 to 50 uM measured after 24 hrs in presence of OVAp by flow cytometry analysis; format: functional, cell-based; conditions: dose 5-50 µM
[16] = Toxicity in C57BL/6 mouse assessed as effect on urea level in serum at 500 ug measured after 1 day after immunization; conditions: 24 h, dose 500 µg
[17] = Toxicity in C57BL/6 mouse assessed as effect on spleen at 500 ug, sc by H and E staining based analysis; format: organism-based; conditions: in vivo, dose 500 µg
B16-OVA melanoma cell [18] = experiment: Antitumor activity against mouse B16-OVA melanoma cell xenografted in C57BL/6 mouse assessed as increase in CD8+T cell level in spleen at 500 ug measured after 24 hrs in presence of OVAp by flow cytometry analysis; format: functional, cell-based; conditions: dose 500.0 µg
[19] = Toxicity in C57BL/6 mouse assessed as effect on heart at 500 ug, sc by H and E staining based analysis; format: organism-based; conditions: in vivo, dose 500 µg
[20] = Upregulation of CD86 expression in mouse RAW264.7 cells assessed as fold increase in fluorescence intensity at 20 uM measured after 24 hrs by flow cytometry analysis; format: functional
[21] = Toxicity in C57BL/6 mouse assessed as effect on ALB level in serum at 500 ug measured after 1 day after immunization; conditions: 24 h, dose 500 µg
RAW264.7 [22] = experiment: Induction of apoptosis in mouse RAW264.7 cells assessed as live cells at 8 uM by flow cytometry analysis (reference value: 75.4 %); format: functional
[23] = Toxicity in BALB/c mouse assessed as increase in Mx2 expression at 100 to 1000 ug measured after 16 hrs in presence of hemagglutinin; conditions: in vivo, dose 100-1000 µg
BMDC [24] = experiment: Cytotoxicity against mouse BMDC cells at 80 uM incubated for 24 hrs by Celltiter-Glo luminescence assay; format: toxicity, cell-based
BMDC [25] = experiment: Induction of immune response in TLR7 knockout mouse BMDC cells assessed as increase in MIP-1alpha production at 10 to 100 uM incubated for 24 hrs by ELISA method; format: functional, cell-based; conditions: dose 10-100 µM
RAW264.7 [26] = experiment: Induction of apoptosis in mouse RAW264.7 cells assessed as necrotic cells at 10 uM by flow cytometry analysis (reference value: 20.6 %); format: functional
B16-OVA melanoma cell [27] = experiment: Antitumor activity against mouse B16-OVA melanoma cell xenografted in C57BL/6 mouse assessed as at 500 ug administered 5 times for every 2 days from day 9 to 17 in presence of OVAp; format: functional, cell-based; conditions: dose 500.0 µg, time 9.0 day
[28] = Upregulation of CD86 expression in mouse BMDC cells assessed as fold increase at 5 to 50 uM measured after 24 hrs in presence of OVAp by flow cytometry analysis; format: functional; conditions: dose 5-50 µM
[29] = Toxicity in BALB/c mouse assessed as effect on body weight loss at 1000 ug measured after 16 hrs in presence of hemagglutinin; conditions: in vivo, dose 1000 µg
[30] = Toxicity in BALB/c mouse assessed as increase in Timp1 expression at 100 to 1000 ug measured after 16 hrs in presence of hemagglutinin; conditions: in vivo, dose 100-1000 µg
RAW264.7 [31] = experiment: Induction of apoptosis in mouse RAW264.7 cells assessed as necrotic cells at 4 uM by flow cytometry analysis (reference value: 20.6 %); format: functional
[32] = Toxicity in C57BL/6 mouse assessed as effect on kidney at 500 ug, sc by H and E staining based analysis; format: organism-based; conditions: in vivo, dose 500 µg
[33] = Toxicity in C57BL/6 mouse assessed as effect on creatinine level in serum at 500 ug measured after 1 day after immunization; conditions: 24 h, dose 500 µg
[34] = Toxicity in BALB/c mouse assessed as reduction in platelet count measured after 16 hrs; conditions: dose 100-1000 µg
Mus musculus [35] = species: Mus musculus; experiment: Induction of immune response in C57BL/6 mouse assessed as increase in total CD8+T cells percentage in spleen at 100 ug measured after 35 days by flow cytometry analysis; format: functional, organism-based; conditions: dose 100.0 µg, time 35.0 day
BMDC [36] = experiment: Induction of immune response in TLR7 knockout mouse BMDC cells assessed as increase in CXCL10 production at 10 to 100 uM incubated for 24 hrs by ELISA method; format: functional, cell-based; conditions: dose 10-100 µM
B16-OVA melanoma cell [37] = experiment: Antitumor activity against mouse B16-OVA melanoma cell xenografted in C57BL/6 mouse assessed as effect on central memory T cell in spleen at 500 ug, sc in presence of OVAp by flow cytometry analysis; format: functional, organism-based; conditions: dose 500.0 µg

C[C@H](CCC(=O)NCCCCCCCNC(=O)CC[C@@H](C)[C@H]1CC[C@H]2[C@@H]3CC[C@@H]4C[C@H](O)CC[C@]4(C)[C@H]3C[C@H](O)[C@]12C)[C@H]1CC[C@H]2[C@@H]3CC[C@@H]4C[C@H](O)CC[C@]4(C)[C@H]3C[C@H](O)[C@]12C
Activity (RAW264.7 [1]): Dose-Dependent Effect | Activity (RAW264.7 [2]): 34% | Activity (BMDC [3]): inactive | Activity (B16-OVA melanoma cell [4]): Active | Activity (RAW264.7 [5]): 36.1% | Activity (BMDC [6]): inactive | fold change (FC) (Mus musculus [7]): 7.6 | Activity [8]: Non-Toxic | fold change (FC) [9]: 6.3 | Activity (RAW264.7 [10]): 1.47% | Activity (Mus musculus [11]): Active | Activity (BMDC [12]): inactive | Activity (RAW264.7 [13]): 67.2% | Activity [14]: Non-Toxic | Activity (BMDC [15]): Active | Activity [16]: Non-Toxic | Activity [17]: Non-Toxic | Activity (B16-OVA melanoma cell [18]): Active | Activity [19]: Non-Toxic | fold change (FC) [20]: 2 | Activity [21]: Non-Toxic | Activity (RAW264.7 [22]): 60.7% | Activity [23]: Non-Toxic | Activity (BMDC [24]): Non-Toxic | Activity (BMDC [25]): inactive | Activity (RAW264.7 [26]): 28.6% | Activity (B16-OVA melanoma cell [27]): Active | fold change (FC) [28]: 1.2 | Activity [29]: Non-Toxic | Activity [30]: Non-Toxic | Activity (RAW264.7 [31]): 19% | Activity [32]: Non-Toxic | Activity [33]: Non-Toxic | Activity [34]: Dose-Dependent Effect | Activity (Mus musculus [35]): Active | Activity (BMDC [36]): inactive | Activity (B16-OVA melanoma cell [37]): Active
